Patent publication US20250243196A1, “CITRON KINASE INHIBITORS” (The Cleveland Clinic Foundation, priority 2021, published 2025)

Experiments:
Assay in all cases: KinaseProfiler panel
Format in all cases: biochemical
Conditions in all cases: activity remaining
AMPKα2(h) = AMPKα2(h) (Homo sapiens (Human), UniProt P54646); set-up: dose or concentration left out as unconfirmed
CDKL1(h) = CDKL1(h) (Homo sapiens (Human), UniProt Q00532); set-up: dose or concentration left out as unconfirmed
CK2α2(h) = CK2α2(h) (Homo sapiens (Human), UniProt P19784); set-up: dose or concentration left out as unconfirmed
cSRC(h) = cSRC(h) (Homo sapiens (Human), UniProt P12931); set-up: dose or concentration left out as unconfirmed
DDR2(h) = DDR2(h) (Homo sapiens (Human), UniProt Q16832); set-up: dose or concentration left out as unconfirmed
DNA-PK(h) = DNA-PK(h) (Homo sapiens (Human), UniProt P78527); set-up: dose or concentration left out as unconfirmed
DYRK1A(h) = DYRK1A(h) (Homo sapiens (Human), UniProt Q13627); set-up: dose or concentration left out as unconfirmed
DYRK2(h) = DYRK2(h) (Homo sapiens (Human), UniProt Q92630); set-up: dose or concentration left out as unconfirmed
EphA2(h) = EphA2(h) (Homo sapiens (Human), UniProt P29317); set-up: dose or concentration left out as unconfirmed
FGFR4(h) = FGFR4(h) (Homo sapiens (Human), UniProt P22455); set-up: dose or concentration left out as unconfirmed
GCK(h) = GCK(h) (Homo sapiens (Human), UniProt Q12851); set-up: dose or concentration left out as unconfirmed
GRK6(h) = GRK6(h) (Homo sapiens (Human), UniProt P43250); set-up: dose or concentration left out as unconfirmed
GSK3β(h) = GSK3β(h) (Homo sapiens (Human), UniProt P49841); set-up: dose or concentration left out as unconfirmed
Hck(h) activated = Hck(h) activated (Homo sapiens (Human), UniProt P08631); set-up: dose or concentration left out as unconfirmed
HIPK1(h) = HIPK1(h) (Homo sapiens (Human), UniProt Q86Z02); set-up: dose or concentration left out as unconfirmed
JNK3(h) = JNK3(h) (Homo sapiens (Human), UniProt P53779); set-up: dose or concentration left out as unconfirmed
MAPK2(h) = MAPK2(h) (Homo sapiens (Human), UniProt P28482); set-up: dose or concentration left out as unconfirmed
MKK3(h) = MKK3(h) (Homo sapiens (Human), UniProt P46734); set-up: dose or concentration left out as unconfirmed
MSK1(h) = MSK1(h) (Homo sapiens (Human), UniProt O75582); set-up: dose or concentration left out as unconfirmed
PDHK4(h) = PDHK4(h) (Homo sapiens (Human), UniProt Q16654); set-up: dose or concentration left out as unconfirmed
PDK1(h) = PDK1(h) (Homo sapiens (Human), UniProt O15530); set-up: dose or concentration left out as unconfirmed
PI3 Kinase (p120g)(h) = PI3 Kinase (p120g)(h) (Homo sapiens (Human), UniProt P48736)
PKD3(h) = PKD3(h) (Homo sapiens (Human), UniProt O94806); set-up: dose or concentration left out as unconfirmed
Plk4(h) = Plk4(h) (Homo sapiens (Human), UniProt O00444); set-up: dose or concentration left out as unconfirmed
SAPK2b(h) = SAPK2b(h) (Homo sapiens (Human), UniProt Q15759); set-up: dose or concentration left out as unconfirmed
SAPK4(h) = SAPK4(h) (Homo sapiens (Human), UniProt O15264); set-up: dose or concentration left out as unconfirmed
SBK1(h) = SBK1(h) (Homo sapiens (Human), UniProt Q52WX2); set-up: dose or concentration left out as unconfirmed
SIK(h) = SIK(h) (Homo sapiens (Human), UniProt P57059); set-up: dose or concentration left out as unconfirmed
SIK2(h) = SIK2(h) (Homo sapiens (Human), UniProt Q9H0K1); set-up: dose or concentration left out as unconfirmed
Snk(h) = Snk(h) (Homo sapiens (Human), UniProt Q9NYY3); set-up: dose or concentration left out as unconfirmed
TrkC(h) = TrkC(h) (Homo sapiens (Human), UniProt Q16288); set-up: dose or concentration left out as unconfirmed
VRK1(h) = VRK1(h) (Homo sapiens (Human), UniProt Q99986); set-up: dose or concentration left out as unconfirmed
Wee1B(h) = Wee1B(h) (Homo sapiens (Human), UniProt P0C1S8); set-up: dose or concentration left out as unconfirmed

Sequence of SIK2(h) (Q9H0K1 whole entry): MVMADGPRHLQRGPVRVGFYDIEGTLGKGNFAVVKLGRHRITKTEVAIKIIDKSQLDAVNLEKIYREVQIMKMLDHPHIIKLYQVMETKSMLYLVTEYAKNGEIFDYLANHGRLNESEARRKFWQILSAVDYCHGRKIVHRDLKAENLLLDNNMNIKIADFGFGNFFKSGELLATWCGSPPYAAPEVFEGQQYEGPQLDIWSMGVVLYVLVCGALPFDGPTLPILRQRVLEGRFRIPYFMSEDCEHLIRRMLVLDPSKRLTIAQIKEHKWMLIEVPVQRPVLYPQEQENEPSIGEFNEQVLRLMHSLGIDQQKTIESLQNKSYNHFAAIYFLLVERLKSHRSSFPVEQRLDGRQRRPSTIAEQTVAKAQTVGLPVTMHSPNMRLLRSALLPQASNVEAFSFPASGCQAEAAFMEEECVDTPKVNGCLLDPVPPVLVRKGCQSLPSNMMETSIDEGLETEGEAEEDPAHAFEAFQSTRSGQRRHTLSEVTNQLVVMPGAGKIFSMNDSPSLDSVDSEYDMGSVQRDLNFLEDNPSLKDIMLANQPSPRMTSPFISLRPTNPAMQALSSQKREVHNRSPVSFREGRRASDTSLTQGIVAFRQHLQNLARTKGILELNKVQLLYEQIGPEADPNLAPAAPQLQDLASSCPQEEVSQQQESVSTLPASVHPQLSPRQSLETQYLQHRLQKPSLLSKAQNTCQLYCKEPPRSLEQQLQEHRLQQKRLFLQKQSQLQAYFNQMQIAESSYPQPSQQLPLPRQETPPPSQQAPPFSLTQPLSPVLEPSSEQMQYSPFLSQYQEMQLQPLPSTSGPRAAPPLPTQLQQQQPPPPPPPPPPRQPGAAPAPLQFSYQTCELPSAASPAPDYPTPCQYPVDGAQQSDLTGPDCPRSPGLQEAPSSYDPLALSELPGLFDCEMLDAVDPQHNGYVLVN
Sequence of AMPKα2(h) (P54646 whole entry): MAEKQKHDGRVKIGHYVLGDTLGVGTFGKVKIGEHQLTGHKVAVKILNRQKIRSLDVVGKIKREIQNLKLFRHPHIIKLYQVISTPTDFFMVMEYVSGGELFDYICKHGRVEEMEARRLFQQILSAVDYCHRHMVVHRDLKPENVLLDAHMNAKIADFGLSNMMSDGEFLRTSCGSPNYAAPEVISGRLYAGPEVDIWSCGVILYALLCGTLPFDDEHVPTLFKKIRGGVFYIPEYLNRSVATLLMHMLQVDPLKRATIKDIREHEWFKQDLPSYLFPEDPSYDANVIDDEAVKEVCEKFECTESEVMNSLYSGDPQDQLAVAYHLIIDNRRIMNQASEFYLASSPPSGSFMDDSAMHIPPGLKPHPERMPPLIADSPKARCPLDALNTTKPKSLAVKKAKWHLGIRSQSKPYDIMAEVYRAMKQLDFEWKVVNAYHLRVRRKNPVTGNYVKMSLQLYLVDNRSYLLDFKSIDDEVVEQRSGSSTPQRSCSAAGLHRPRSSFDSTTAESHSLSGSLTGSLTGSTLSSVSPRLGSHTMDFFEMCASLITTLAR
Sequence of AMPKα2(h) (Q9Y478 whole entry partner): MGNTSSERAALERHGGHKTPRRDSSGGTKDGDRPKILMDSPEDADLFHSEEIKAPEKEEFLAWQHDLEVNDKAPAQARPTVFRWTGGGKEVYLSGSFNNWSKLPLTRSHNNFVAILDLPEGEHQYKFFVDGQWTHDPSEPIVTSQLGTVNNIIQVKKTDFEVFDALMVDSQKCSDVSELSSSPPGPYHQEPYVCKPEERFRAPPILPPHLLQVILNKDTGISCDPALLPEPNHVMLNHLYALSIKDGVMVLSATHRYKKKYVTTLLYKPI
Sequence of AMPKα2(h) (P54619 whole entry partner): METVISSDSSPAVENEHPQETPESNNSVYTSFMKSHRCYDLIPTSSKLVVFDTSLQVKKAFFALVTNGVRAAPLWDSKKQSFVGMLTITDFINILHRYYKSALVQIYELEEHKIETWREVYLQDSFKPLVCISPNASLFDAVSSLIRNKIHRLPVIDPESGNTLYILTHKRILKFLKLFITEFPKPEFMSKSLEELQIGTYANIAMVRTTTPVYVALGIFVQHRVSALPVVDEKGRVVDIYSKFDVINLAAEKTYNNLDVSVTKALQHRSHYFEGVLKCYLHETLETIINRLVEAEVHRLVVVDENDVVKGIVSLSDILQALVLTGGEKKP
Sequence of VRK1(h) (Q99986 whole entry): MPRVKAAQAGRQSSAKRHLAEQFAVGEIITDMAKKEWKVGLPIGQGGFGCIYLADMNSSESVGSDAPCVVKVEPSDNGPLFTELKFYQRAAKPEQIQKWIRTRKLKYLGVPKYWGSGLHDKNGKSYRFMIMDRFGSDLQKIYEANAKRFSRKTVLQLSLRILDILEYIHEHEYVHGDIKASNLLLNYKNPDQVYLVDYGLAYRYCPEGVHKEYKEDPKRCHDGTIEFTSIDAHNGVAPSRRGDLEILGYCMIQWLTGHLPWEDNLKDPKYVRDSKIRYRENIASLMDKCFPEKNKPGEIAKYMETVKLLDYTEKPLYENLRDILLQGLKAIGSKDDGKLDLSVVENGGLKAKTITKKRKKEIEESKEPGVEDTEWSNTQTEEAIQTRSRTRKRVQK
Sequence of Snk(h) (Q9NYY3 whole entry): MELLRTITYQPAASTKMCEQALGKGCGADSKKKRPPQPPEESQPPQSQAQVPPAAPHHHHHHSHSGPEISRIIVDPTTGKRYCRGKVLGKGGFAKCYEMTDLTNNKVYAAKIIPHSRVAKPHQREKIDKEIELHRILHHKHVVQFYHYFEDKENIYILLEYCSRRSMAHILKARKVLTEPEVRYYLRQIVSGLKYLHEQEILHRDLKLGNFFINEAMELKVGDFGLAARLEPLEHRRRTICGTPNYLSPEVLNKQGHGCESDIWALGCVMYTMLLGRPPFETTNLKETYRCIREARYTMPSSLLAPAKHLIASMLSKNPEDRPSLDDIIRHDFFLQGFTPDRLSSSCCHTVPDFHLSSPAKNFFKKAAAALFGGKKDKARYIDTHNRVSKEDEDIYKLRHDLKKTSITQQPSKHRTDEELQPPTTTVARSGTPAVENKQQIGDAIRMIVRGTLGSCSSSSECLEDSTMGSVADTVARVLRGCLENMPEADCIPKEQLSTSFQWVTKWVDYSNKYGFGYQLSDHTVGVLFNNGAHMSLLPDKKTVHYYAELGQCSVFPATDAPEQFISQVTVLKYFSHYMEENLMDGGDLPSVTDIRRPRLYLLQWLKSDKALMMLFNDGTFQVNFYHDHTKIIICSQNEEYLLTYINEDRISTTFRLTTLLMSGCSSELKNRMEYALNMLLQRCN
Sequence of FGFR4(h) (P22455 22-802): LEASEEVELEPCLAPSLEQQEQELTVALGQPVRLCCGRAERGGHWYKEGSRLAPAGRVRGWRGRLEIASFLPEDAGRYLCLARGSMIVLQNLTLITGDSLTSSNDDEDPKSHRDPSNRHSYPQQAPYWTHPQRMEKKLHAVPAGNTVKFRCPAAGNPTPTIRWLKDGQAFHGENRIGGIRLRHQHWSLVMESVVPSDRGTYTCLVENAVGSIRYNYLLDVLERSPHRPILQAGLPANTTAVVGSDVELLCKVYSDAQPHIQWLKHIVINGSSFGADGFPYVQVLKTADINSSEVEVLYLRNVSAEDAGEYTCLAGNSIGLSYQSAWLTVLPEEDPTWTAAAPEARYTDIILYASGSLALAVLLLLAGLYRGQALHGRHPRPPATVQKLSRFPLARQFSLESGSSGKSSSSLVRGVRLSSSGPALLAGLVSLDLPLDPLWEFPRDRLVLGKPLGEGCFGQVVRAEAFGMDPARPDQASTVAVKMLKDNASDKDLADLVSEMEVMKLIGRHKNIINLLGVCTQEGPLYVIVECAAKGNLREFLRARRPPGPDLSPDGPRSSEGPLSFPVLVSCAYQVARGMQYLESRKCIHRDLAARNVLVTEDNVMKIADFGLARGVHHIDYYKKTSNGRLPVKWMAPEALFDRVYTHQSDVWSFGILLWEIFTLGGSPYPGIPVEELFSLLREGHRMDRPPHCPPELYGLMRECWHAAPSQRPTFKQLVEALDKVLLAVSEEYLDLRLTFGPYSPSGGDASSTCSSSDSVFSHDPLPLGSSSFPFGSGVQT
Sequence of CDKL1(h) (Q00532 whole entry): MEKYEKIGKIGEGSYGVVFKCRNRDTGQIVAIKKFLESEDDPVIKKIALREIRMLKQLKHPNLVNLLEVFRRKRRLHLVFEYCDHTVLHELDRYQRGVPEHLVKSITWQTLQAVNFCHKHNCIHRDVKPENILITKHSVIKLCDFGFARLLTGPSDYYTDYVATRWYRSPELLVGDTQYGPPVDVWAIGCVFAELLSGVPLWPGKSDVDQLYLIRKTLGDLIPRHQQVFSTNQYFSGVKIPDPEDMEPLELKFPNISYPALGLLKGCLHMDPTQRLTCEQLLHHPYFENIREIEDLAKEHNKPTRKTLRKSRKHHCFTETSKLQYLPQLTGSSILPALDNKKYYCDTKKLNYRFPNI
Sequence of JNK3(h) (P53779 whole entry): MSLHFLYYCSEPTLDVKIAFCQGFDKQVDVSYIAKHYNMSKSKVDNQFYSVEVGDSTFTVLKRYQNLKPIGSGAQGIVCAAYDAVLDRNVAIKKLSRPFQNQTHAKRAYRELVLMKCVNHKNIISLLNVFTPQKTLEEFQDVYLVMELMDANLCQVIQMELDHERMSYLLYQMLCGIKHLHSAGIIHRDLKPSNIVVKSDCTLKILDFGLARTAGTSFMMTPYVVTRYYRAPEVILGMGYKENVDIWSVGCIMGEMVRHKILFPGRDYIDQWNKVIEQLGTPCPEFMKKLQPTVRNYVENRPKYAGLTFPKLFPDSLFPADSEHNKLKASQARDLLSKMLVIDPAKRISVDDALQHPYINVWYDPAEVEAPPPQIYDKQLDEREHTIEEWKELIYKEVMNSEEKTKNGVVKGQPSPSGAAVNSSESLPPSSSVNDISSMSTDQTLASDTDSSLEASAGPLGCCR

## Cc1cc2c(-c3ccc(NC(=O)[C@H](N)CC(C)(C)C)cc3C)ccnc2[nH]1 [Compound F-90, (2R)-2-Amino-4,4-dimethyl-N-[3-methyl-4-(2-methyl-1H-pyrrolo[2,3-b]pyridin-4-yl)phenyl]pentanamide]
AMPKα2(h)
  % Activity: 117%
CDKL1(h)
  % Activity: 99%
CK2α2(h)
  % Activity: 115%
cSRC(h)
  % Activity: 93%
DDR2(h)
  % Activity: 85%
DNA-PK(h)
  % Activity: 107%
DYRK1A(h)
  % Activity: 112%
DYRK2(h)
  % Activity: 101%
EphA2(h)
  % Activity: 95%
FGFR4(h)
  % Activity: 114%
GCK(h)
  % Activity: 118%
GRK6(h)
  % Activity: 95%
GSK3β(h)
  % Activity: 93%
Hck(h) activated
  % Activity: 111%
HIPK1(h)
  % Activity: 100%
JNK3(h)
  % Activity: 88%
MAPK2(h)
  % Activity: 109%
MKK3(h)
  % Activity: 97%
MSK1(h)
  % Activity: 111%
PDHK4(h)
  % Activity: 101%
PDK1(h)
  % Activity: 105%
PI3 Kinase (p120g)(h)
  % Activity: 105%
PKD3(h)
  % Activity: 97%
Plk4(h)
  % Activity: 92%
SAPK2b(h)
  % Activity: 90%
SAPK4(h)
  % Activity: 94%
SBK1(h)
  % Activity: 97%
SIK(h)
  % Activity: 105%
SIK2(h)
  % Activity: 109%
Snk(h)
  % Activity: 94%
TrkC(h)
  % Activity: 86%
VRK1(h)
  % Activity: 99%
Wee1B(h)
  % Activity: 88%
